Data from patent US20250082651A1, “GANAXOLONE FOR USE IN TREATING GENETIC EPILEPTIC DISORDERS” (Marinus Pharmaceuticals, Inc., priority 2017, published 2025).

Columns and labels:
[1] = tested on: cytochrome P450 (CYP) isoenzymes 1A1/2 and 2B1/2; experiment: CYP induction and auto-induction in animals; type: in vivo, rat
[2] = Plasma concentrations in paediatric patients after oral dosing; type: in vivo, human; settings: for Plasma concentrations: oral with food, 1 to 13 year old epilepsy patients
[3] = oral suspension formulation, 3 to 18 mg/kg TID, patients aged 4 to 41 months

CC(=O)[C@H]1CC[C@H]2[C@@H]3CC[C@H]4C[C@](C)(O)CC[C@]4(C)[C@H]3CC[C@]12C [Ganaxolone, 3α-hydroxy-3β-methyl-5α-pregnan-20-one]
Auto-induction ([1]; dogs): no auto-induction
Induction of CYP isoenzymes 1A1/2 and 2B1/2 ([1]; female rats): induces
Induction of CYP isoenzymes 1A1/2 and 2B1/2 ([1]; male rats): not males
Auto-induction ([1]; mouse and rat): Auto-induction has also been observed
Plasma concentrations ([2]; 1 mg/kg TID): up to 5.78 ng/mL
Trough concentrations ([2]; 12 mg/kg TID, humans about 0.6 to about 7 years old): at least 38.5±37.4 ng/mL
Plasma concentrations ([2]; 12 mg/kg TID): 10.3 to 16.1 ng/mL
concentration at 4 weeks ([2]; human, plasma, oral, β-cyclodextrin formulation with food, 6 mg/kg BID to 12 mg/kg TID, 5-15 year old, read-out: Plasma concentrations at week 4): ≤ 22.1 ng/mL
concentration at 8 weeks ([2]; human, plasma, oral, β-cyclodextrin formulation with food, 6 mg/kg BID to 12 mg/kg TID, 5-15 year old, read-out: Plasma concentrations at week 8): 5.7 to 43.7 ng/mL
Cmax [2, 3]: about 123 ng/mL
Trough concentration [2, 3]: about 23 ng/mL
